These are literature values, as cited in patent US20080166330A1, “Bacterial Compositions For Prevention Or Treatment Of Atherosclerotic Disorders” (priority 2004, published 2008).

For the data set, the system named is anti-Chlamydia abzymes. The following applies: general statement of the description, no test details.

Regarding `CC[C@H]1OC(=O)[C@H](C)[C@@H](O[C@H]2C[C@@](C)(OC)[C@@H](O)[C@H](C)O2)[C@H](C)[C@@H](O[C@@H]2O[C@H](C)C[C@H](N(C)C)[C@H]2O)[C@](C)(O)C[C@@H](C)CN(C)[C@H](C)[C@@H](O)[C@]1(C)O` [azithromycin], the “inhibition of abzyme activity” value is “inhibit abzyme activity”.
